Laboratory results: publication PMC8776995 (Frontiers in Chemistry, 2022)
“And” between values parts separate entries of the source, which are not always exact repeats. Equal entries are not always repeated.

Tested on: CCND1, CCNA2, CCNB1, CDK2, CDK6 RNA in PC-9 cells
Assay: qPCR assay for cell cycle-related gene analysis
Assay type: cell-based, human
Settings: for RQ / RQ, CCNA / RQ, CCNB / RQ, CCND1 / RQ, CDK6 / RQ (CDK2): endogenous control b-Actin, reference sample NC; for CDK6 relative mRNA expression (fold of NC): qPCR, SYBR Green, normalised to beta-Actin, relative to NC = 1
Excerpt: To better understand the mechanisms underlying cell cycle arrest induced by e4 and e12 in NSCLC cells, we assessed the expression levels of a few genes involved in cell cycle regulation, including cyclin D1 (CCND1), cyclin A2 (CCNA2), cyclin B1 (CCNB1), cyclin-dependent kinase 2 (CDK2), and cyclin-dependent kinase 6 (CDK6) in PC-9 by qPCR. […] CCNA2 is known to bind and activate CDK2 and thus promotes the transition through G1/S and G2/M. CCNB1 and CCND1 are essential to mitosis and G1/S transition respectively. While G2/M arrest weas not detected, the changes in these gene expression profiles interpret the G1/S arrests in PC-9 cells treated with e4 and e12. PC-9 cells exposed to the compounds for various periods should be examined further.
Total RNA of cells was extracted and cDNA was synthesized. The primers for the target products were designed as in Table 3.

[1] = PC-9, 16 h, compared with DMSO control

COCCOc1cc2ncnc(Nc3cccc(-c4cn(-c5ccc(C)cc5)nn4)c3)c2cc1OCCOC [e12, [6,7-Bis-(2-methoxy-ethoxy)-quinazolin-4-yl]-[3-(1-p-tolyl-1H-[1,2,3]triazol-4-yl)-phenyl]-amine]
2^ΔΔCт CCNA (CCNA, 12uM, Repeat 1-3, relative to NC = 1): 0.5914 and 0.5472 and 0.7362 | RQ (CCNB mRNA, 4uM): 1.03 | RQ (CCNB mRNA, 8uM): 0.8431 | RQ (CCNB mRNA, 12uM): 1.0421 | 2^ΔΔCт CCNB (4uM, Repeat 1-3, relative to NC = 1): 0.9828 and 0.8732 and 1.03 | 2^ΔΔCт CCNB (8uM, Repeat 1-3, relative to NC = 1): 0.8452 and 0.8244 and 0.8431 | 2^ΔΔCт CCNB (12uM, Repeat 1-3, relative to NC = 1): 0.7825 and 0.7721 and 1.0421 | 2^ΔΔCт CCND1 (CCND1, 4uM, Repeat 1-3, relative to NC = 1): 0.7886 and 0.963 and 1.159 | 2^ΔΔCт CCND1 (CCND1, 8uM, Repeat 1-3, relative to NC = 1): 0.7649 and 0.9528 and 0.8372 | 2^ΔΔCт CCND1 (CCND1, 12uM, Repeat 1-3, relative to NC = 1): 0.6173 and 0.9545 and 0.694 | RQ (CCND1 mRNA, 4uM): 1.159 | RQ (CCND1 mRNA, 8uM): 0.8372 | RQ (CCND1 mRNA, 12uM): 0.694 | 2^ΔΔCт CDK2 (CDK2, 4uM, Repeat 1-3, relative to NC = 1): 0.9262 and 1.002 and 1.127 | 2^ΔΔCт CDK2 (CDK2, 8uM, Repeat 1-3, relative to NC = 1): 0.848 and 1.034 and 0.9665 | 2^ΔΔCт CDK2 (CDK2, 12uM, Repeat 1-3, relative to NC = 1): 0.7751 and 1.0315 and 0.9502 | RQ (CDK2 mRNA, 4uM): 1.127 | RQ (CDK2 mRNA, 8uM): 0.9665 | RQ (CDK2 mRNA, 12uM): 0.9502 | 2^ΔΔCт CDK6 (CDK6, 4uM, Repeat 1-3, relative to NC = 1): 0.5928 and 0.8604 and 0.9896 | 2^ΔΔCт CDK6 (CDK6, 8uM, Repeat 1-3, relative to NC = 1): 0.8101 and 1.1509 and 0.9153 | 2^ΔΔCт (CDK6, 8uM, normalized to WT (NC), run 20201020-2): 0.9153 | 2^ΔΔCт CDK6 (CDK6, 12uM, Repeat 1-3, relative to NC = 1): 0.676 and 1.27 and 0.9852 | RQ (CDK6 mRNA, 4uM): 0.9896 | RQ (CDK6 mRNA, 8uM): 0.9153 | RQ (CDK6 mRNA, 12uM): 0.9852 | RNA level of CCNA2 [1]: significantly decreased | RNA level of CCNB1 [1]: significantly decreased | RQ, CCNA (qPCR SYBR Green, CCNA mRNA, 4uM): 0.6447 | RQ, CCNA (qPCR SYBR Green, CCNA mRNA, 8uM): 0.5272 | RQ, CCNA (qPCR SYBR Green, CCNA mRNA, 12uM): 0.5472 | RQ, CCNB (qPCR SYBR Green, CCNB mRNA, 4uM): 1.09 | RQ, CCNB (qPCR SYBR Green, CCNB mRNA, 8uM): 1.029 | RQ, CCNB (qPCR SYBR Green, CCNB mRNA, 12uM): 0.964 | RQ, CCND1 (qPCR SYBR Green, CCND1 mRNA, 4uM): 0.963 | RQ, CCND1 (qPCR SYBR Green, CCND1 mRNA, 8uM): 0.9528 | RQ, CCND1 (qPCR SYBR Green, CCND1 mRNA, 12uM): 0.9545 | RQ, CDK6 (qPCR SYBR Green, CDK6 mRNA, 4uM): 0.8604 | RQ, CDK6 (qPCR SYBR Green, CDK6 mRNA, 8uM): 1.1509 | RQ, CDK6 (qPCR SYBR Green, CDK6 mRNA, 12uM): 1.27 | CDK6 relative mRNA expression (fold of NC) (4uM): 0.9896 | CDK6 relative mRNA expression (fold of NC) (8uM): 0.9153 | CDK6 relative mRNA expression (fold of NC) (12uM): 0.9852 | RQ, CCNA (target CCNA, 4uM): 0.5435 | RQ, CCNA (target CCNA, 8uM): 0.582 | RQ, CCNA (target CCNA, 12uM): 0.5914 | RQ, CCNB (target CCNB, 4uM): 0.9828 | RQ, CCNB (target CCNB, 8uM): 0.8452 | RQ, CCNB (target CCNB, 12uM): 0.7825 | RQ, CCND1 (target CCND1, 4uM): 0.7886 | RQ, CCND1 (target CCND1, 8uM): 0.7649 | RQ, CCND1 (target CCND1, 12uM): 0.6173 | RQ (CDK2) (target CDK2, 4uM): 0.9262 | RQ (CDK2) (target CDK2, 8uM): 0.848 | RQ (CDK2) (target CDK2, 12uM): 0.7751 | RQ, CDK6 (target CDK6, 4uM): 0.5928 | RQ, CDK6 (target CDK6, 8uM): 0.8101 | RQ, CDK6 (target CDK6, 12uM): 0.676
